These results are taken from patent US8658646B2, “Pyrrolopyrazine kinase inhibitors” (Hoffmann-LaRoche Inc., priority 2011, dated 2014).

Each structure is given as a SMILES string.

The target of this assay is T1, JAK3: Recombinant human kinase domain (Homo sapiens, UniProt P52333).
T1 construct: JAK3: Recombinant human kinase domain from Millipore (Cat #14-629) or prepared; purchased Millipore 14-629
T1 sequence (P52333 822-1111 limits assumed): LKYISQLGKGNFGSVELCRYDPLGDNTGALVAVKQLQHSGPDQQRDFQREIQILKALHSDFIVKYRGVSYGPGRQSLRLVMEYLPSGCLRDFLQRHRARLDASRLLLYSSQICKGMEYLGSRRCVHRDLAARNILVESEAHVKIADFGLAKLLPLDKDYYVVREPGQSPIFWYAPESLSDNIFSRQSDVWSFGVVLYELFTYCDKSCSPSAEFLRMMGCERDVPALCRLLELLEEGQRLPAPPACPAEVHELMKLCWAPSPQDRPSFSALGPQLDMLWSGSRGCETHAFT
Put plainly: Determination of IC50 of Janus Kinase (JAK) inhibition, radioactive end-point 33P-ATP assay, JAK3. The format is biochemical. The settings on record: ATP 1.5 uM, peptide 50 uM, 20 minutes, read-out: JAK3-INHIB-DR/v1~NO ADDITIVE~Enzyme_Conc = 100.
Procedure: Determination of IC50 of Janus Kinase (JAK) Inhibition:
Assay conditions used are described below: • Assay Buffer: JAK Kinase Buffer: 50 mM Hepes [pH 7.2], 10 mM MgCl2, 1 mM DTT, 1 mg/ml BSA. The assay was carried out in this buffer. • Assay Format The kinase activity of all three JAK kinases was measured using a radioactive, end-point assay and with trace amounts of ^33P-ATP. The assays were carried out in 96-well polypropylene plates. Experimental Method:
All concentrations were final in the reaction mixture and all incubations were carried at room temperature. […] Final concentration of DMSO in the reaction was 10%. • 2) Compounds were preincubated with enzyme (0.5 nM JAK3 (commercially available), 0.2 nM JAK3 (prepared), 1 nM JAK2, 5 nM JAK1) for 10 minutes. • 3) Reactions were initiated by the addition of a cocktail of the two substrates (ATP and peptide premixed in the JAK Kinase Buffer). […] JAK1 assay was carried out at an ATP concentration of 10 uM and a peptide concentration of 50 uM. • 4) The duration of the assay for JAK2 and JAK3 is 20 minutes. JAK1 assay was carried out for 40 minutes. With all three enzymes, reactions were terminated by the addition of 0.5M EDTA to a final concentration of 100 mM. • 5) 25 ul of terminated reactions were transferred to 150 ul of a 7.5% (v/v) slurry of streptavidin-coated sepharose beads in MgCl2- and CaCl2-free 1× Phosphate Buffered Saline containing 50 mM of EDTA in 96-well, 1.2 um MultiScreen-BV filter plates. • 6) After a 30-minute incubation, the beads were washed under vacuum with the following buffers: • a. 3 to 4 washes with 200 ul of 2M NaCl. • b. 3 to 4 washes with 200 ul of 2M NaCl plus 1% (v/v) phosphoric acid. • c. 1 wash with water. • 7) Washed plates were dried in a 60° C. oven for between 1 to 2 hours. • 8) 70 ul of Microscint 20 scintillation fluid was added to each well of filter plates and after at least 30 minutes of incubation, radioactive counts were measured in a Perkinelmer microplate scintillation counter.
As for `C[C@@H](NC(=O)c1c[nH]c2ncc(-c3nc(CO)n4cc(F)ccc34)nc12)C(=O)N1CC(C#N)C1` [Example I-35, 2-(6-Fluoro-3-hydroxymethyl-imidazo[1,5-a]pyridin-1-yl)-5H-pyrrolo[2,3-b]pyradine-7-carboxylic acid [(R)-2-(3-cyano-azetidin-1-yl)-1-methyl-2-oxo-ethyl]-amide], the IC50 worked out at 0.33 nM.

`COC[C@H](C)NC(=O)c1c[nH]c2ncc(-c3ncn4cc(F)ccc34)nc12` [Example I-41, 2-(6-Fluoro-imidazo[1,5-a]pyridin-1-yl)-5H-pyrrolo[2,3-b]pyrazine-7-carboxylic acid ((S)-2-methoxy-1-methyl-ethyl)-amide]: the IC50 amounted to 0.375 nM.

For `C[C@@H](NC(=O)c1c[nH]c2ncc(-c3nc(S(C)(=O)=O)n4cc(F)ccc34)nc12)C(=O)N1CC(C#N)C1` [Example I-42, 2-(6-Fluoro-3-methanesulfonyl-imidazo[1,5-a]pyridin-1-yl)-5H-pyrrolo[2,3-b]pyrazine-7-carboxylic acid [(R)-2-(3-cyano-azetidin-1-yl)-1-methyl-2-oxo-ethyl]-amide], the IC50 is 1.25 nM.

Regarding `CC(NC(=O)c1c[nH]c2ncc(-c3nn(C)c4cc(F)ccc34)nc12)c1ncco1` (stereo not shown) [Example I-49, 2-(6-Fluoro-1-methyl-1H-indazol-3-yl)-5H-pyrrolo[2,3-b]pyrazine-7-carboxylic acid (1-oxazol-2-yl-ethyl)-amide], the IC50 worked out at 5.66 nM.

With `C[C@@H](NC(=O)c1c[nH]c2ncc(-c3nn(C)c4cc(F)ccc34)nc12)c1ncco1` [Example I-50, 2-(6-Fluoro-1-methyl-1H-indazol-3-yl)-5H-pyrrolo[2,3-b]pyrazine-7-carboxylic acid ((R)-1-oxazol-2-yl-ethyl)-amide], the IC50 was 2.63 nM.

With `C[C@H](NC(=O)c1c[nH]c2ncc(-c3nn(C)c4cc(F)ccc34)nc12)c1ncco1` [Example I-51, 2-(6-Fluoro-1-methyl-1H-indazol-3-yl)-5H-pyrrolo[2,3-b]pyrazine-7-carboxylic acid ((S)-1-oxazol-2-yl-ethyl)-amide], the IC50 amounted to 9.11 nM.

As for `CC(NC(=O)c1c[nH]c2ncc(-c3nn(C)c4cc(F)ccc34)nc12)c1ccon1` (stereo not shown) [Example I-53, 2-(6-Fluoro-1-methyl-1H-indazol-3-yl)-5H-pyrrolo[2,3-b]pyrazine-7-carboxylic acid (1-isoxazol-3-yl-ethyl)-amide], the IC50 is 7.07 nM.

As to `C[C@@H](NC(=O)c1c[nH]c2ncc(-c3ncn4cc(F)ccc34)nc12)c1ncco1` [Example I-58, 2-(6-Fluoro-imidazo[1,5-a]pyridin-1-yl)-5H-pyrrolo[2,3-b]pyrazine-7-carboxylic acid ((R)-1-oxazol-2-yl-ethyl)-amide], the IC50 stood at 2.31 nM.

Consider `CCC[C@@H](NC(=O)c1c[nH]c2ncc(-c3nn(C)c4cc(F)ccc34)nc12)C(=O)N1CC(F)C1` [Example I-59, 2-(6-Fluoro-1-methyl-1H-indazol-3-yl)-5H-pyrrolo[2,3-b]pyrazine-7-carboxylic acid [(R)-1-(3-fluoro-azetidine-1-carbonyl)-butyl]-amide], for which the IC50 worked out at 3.19 nM.

Consider `C[C@@H](NC(=O)c1c[nH]c2ncc(-c3nn(C)c4cc(F)ccc34)nc12)C(F)(F)Cc1ccccc1` [Example I-61, 2-(6-Fluoro-1-methyl-1H-indazol-3-yl)-5H-pyrrolo[2,3-b]pyrazine-7-carboxylic acid ((R)-2,2-difluoro-1-methyl-3-phenyl-propyl)-amide], for which the IC50 amounted to 16.8 nM.

Consider `C[C@@H](NC(=O)c1c[nH]c2ncc(-c3nn(C)c4cc(F)ccc34)nc12)c1nc(CC#N)co1` [Example I-62, 2-(6-Fluoro-1-methyl-1H-indazol-3-yl)-5H-pyrrolo[2,3-b]pyrazine-7-carboxylic acid [(R)-1-(4-cyanomethyl-oxazol-2-yl)-ethyl]-amide], for which the IC50 turned out to be 15.1 nM.

With `C[C@@H](NC(=O)c1c[nH]c2ncc(-c3nn(C)c4cc(F)ccc34)nc12)[C@@H]1CCCO1` [Example I-63, 2-(6-Fluoro-1-methyl-1H-indazol-3-yl)-5H-pyrrolo[2,3-b]pyrazine-7-carboxylic acid [(R)-(S)-1-(tetrahydro-furan-2-yl)-ethyl]-amide], the IC50 is 6.67 nM.

Regarding `C[C@@H](NC(=O)c1c[nH]c2ncc(-c3nn(C)c4cc(F)ccc34)nc12)[C@H]1CCCO1` [Example I-64, 2-(6-Fluoro-1-methyl-1H-indazol-3-yl)-5H-pyrrolo[2,3-b]pyrazine-7-carboxylic acid [(R)-(R)-1-(tetrahydro-furan-2-yl)-ethyl]-amide], the IC50 turned out to be 13.3 nM.

In the case of `N#CC1CCN(C(=O)[C@H](NC(=O)c2c[nH]c3ncc(-n4ncc5cc(Cl)ccc54)nc23)C2CC2)CC1` [Example I-66, 2-(5-Chloro-indazol-1-yl)-5H-pyrrolo[2,3-b]pyrazine-7-carboxylic acid [(R)-2-(4-cyano-piperidin-1-yl)-1-cyclopropyl-2-oxo-ethyl]-amide], the IC50 was 2.17 nM.

In the case of `Cn1nc(-c2cnc3[nH]cc(C(=O)N[C@@H](C(=O)N4CCC(C#N)CC4)C4CC4)c3n2)c2cc(Cl)c(Cl)cc21` [Example I-67, 2-(5,6-Dichloro-1-methyl-1H-indazol-3-yl)-5H-pyrrolo[2,3-b]pyrazine-7-carboxylic acid [(R)-2-(4-cyano-piperidin-1-yl)-1-cyclopropyl-2-oxo-ethyl]-amide], the IC50 was found to be 0.48 nM.

As for `N#CC1CCN(C(=O)[C@H](NC(=O)c2c[nH]c3ncc(-n4ncc5cc(Cl)c(Cl)cc54)nc23)C2CC2)CC1` [Example I-68, 2-(5,6-Dichloro-indazol-1-yl)-5H-pyrrolo[2,3-b]pyrazine-7-carboxylic acid [(R)-2-(4-cyano-piperidin-1-yl)-1-cyclopropyl-2-oxo-ethyl]-amide], the IC50 is 5.75 nM.

On to `C[C@@H](NC(=O)c1c[nH]c2ncc(-c3nn(C)c4c3CCC(C)(C)C4)nc12)C(=O)N1CC(C#N)C1` [Example I-70, 2-(1,6,6-Trimethyl-4,5,6,7-tetrahydro-1H-indazol-3-yl)-5H-pyrrolo[2,3-b]pyrazine-7-carboxylic acid [(R)-2-(3-cyano-azetidin-1-yl)-1-methyl-2-oxo-ethyl]-amide], for which the IC50 was determined as 29.8 nM.

On to `C[C@H](CC(=O)N1CCCC1)NC(=O)c1c[nH]c2ncc(-c3nn(C)c4cc(Cl)ccc34)nc12` [Example I-72, 2-(6-Chloro-1-methyl-1H-indazol-3-yl)-5H-pyrrolo[2,3-b]pyrazine-7-carboxylic acid ((R)-1-methyl-3-oxo-3-pyrrolidin-1-yl-propyl)-amide], for which the IC50 worked out at 285 nM.

`CC(NC(=O)c1c[nH]c2ncc(-c3nn(C)c4cc(F)ccc34)nc12)[C@H]1C[C@H](C#N)C1` (stereo partly drawn) [Example I-74, 2-(6-Fluoro-1-methyl-1H-indazol-3-yl)-5H-pyrrolo[2,3-b]pyrazine-7-carboxylic acid [1-(trans-3-cyano-cyclobutyl)-ethyl]-amide]: the IC50 is 9.35 nM.

In the case of `CC(NC(=O)c1c[nH]c2ncc(-c3nn(C)c4cc(F)ccc34)nc12)[C@H]1C[C@@H](C#N)C1` (stereo partly drawn) [Example I-76, 2-(6-Fluoro-1-methyl-1H-indazol-3-yl)-5H-pyrrolo[2,3-b]pyrazine-7-carboxylic acid [1-(cis-3-cyano-cyclobutyl)-ethyl]-amide], the IC50 worked out at 12.7 nM.

On to `C[C@@H](NC(=O)c1c[nH]c2ncc(-c3nn(C)c4cc(F)ccc34)nc12)c1cc(C(F)(F)F)ccn1` [Example I-79, 2-(6-Fluoro-1-methyl-1H-indazol-3-yl)-5H-pyrrolo[2,3-b]pyrazine-7-carboxylic acid [(R)-1-(4-trifluoromethyl-pyridin-2-yl)-ethyl]-amide], for which the IC50 came out at 15.1 nM.

Turning to `Cc1ccc2c(-c3cnc4[nH]cc(C(=O)N[C@H](C)C(=O)N5CC(C#N)C5)c4n3)nn(C)c2c1` [Example I-82], the IC50 turned out to be 1.36 nM.

In the case of `C[C@@H](NC(=O)c1c[nH]c2ncc(-c3nn(C)c4cc(F)cc(F)c34)nc12)C(=O)N1CC(C#N)C1` [Example I-88, 2-(4,6-Difluoro-1-methyl-1H-indazol-3-yl)-5H-pyrrolo[2,3-b]pyrazine-7-carboxylic acid [(R)-2-(3-cyano-azetidin-1-yl)-1-methyl-2-oxo-ethyl]-amide], the IC50 is 1.57 nM.

Take `Cc1ccc2c(-c3cnc4[nH]cc(C(=O)N[C@H](C)C(=O)N5CC(C#N)C5)c4n3)nn(C)c2n1` [Example I-89, 2-(1,6-Dimethyl-1H-pyrazolo[3,4-b]pyridin-3-yl)-5H-pyrrolo[2,3-b]pyrazine-7-carboxylic acid [(R)-2-(3-cyano-azetidin-1-yl)-1-methyl-2-oxo-ethyl]-amide]: the IC50 came out at 1.09 nM.

Turning to `C[C@@H](NC(=O)c1c[nH]c2ncc(-c3nn(CCO)c4cc(Cl)ccc34)nc12)C(=O)N1CC(C#N)C1` [Example I-90, 2-[6-Chloro-1-(2-hydroxy-ethyl)-1H-indazol-3-yl]-5H-pyrrolo[2,3-b]pyrazine-7-carboxylic acid [(R)-2-(3-cyano-azetidin-1-yl)-1-methyl-2-oxo-ethyl]-amide], the IC50 was found to be 3.83 nM.

As to `CC(C)n1nc(-c2cnc3[nH]cc(C(=O)N[C@H](C)C(=O)N4CC(C#N)C4)c3n2)c2ccc(Cl)cc21` [Example I-91, 2-(6-Chloro-1-isopropyl-1H-indazol-3-yl)-5H-pyrrolo[2,3-b]pyrazine-7-carboxylic acid [(R)-2-(3-cyano-azetidin-1-yl)-1-methyl-2-oxo-ethyl)-amide], the IC50 turned out to be 3.13 nM.

As for `CCCn1nc(-c2cnc3[nH]cc(C(=O)N[C@H](C)C(=O)N4CC(C#N)C4)c3n2)c2ccc(Cl)cc21` [Example I-92, 2-(6-Chloro-1-propyl-1H-indazol-3-yl)-5H-pyrrolo[2,3-b]pyrazine-7-carboxylic acid [(R)-2-(3-cyano-azetidin-1-yl)-1-methyl-2-oxo-ethyl]-amide], the IC50 was 2.08 nM.

`C[C@@H](NC(=O)c1c[nH]c2ncc(-c3nn(CC#N)c4cc(Cl)ccc34)nc12)C(=O)N1CC(C#N)C1` [Example I-93, 2-(6-Chloro-1-cyanomethyl-1H-indazol-3-yl)-5H-pyrrolo[2,3-b]pyrazine-7-carboxylic acid [(R)-2-(3-cyano-azetidin-1-yl)-1-methyl-2-oxo-ethyl]-amide]: the IC50 was determined as 0.775 nM.
